Measured values as given in patent US11058678B2 (Enanta Pharmaceuticals, Inc., priority 2018, dated 2021).

Columns and labels:
HBV (2.2.15 cells) = test: Antiviral activity in 2.2.15 cells: reduction of viral product accumulation (qPCR of lysates, HBsAg or HBeAg ELISA); assay type: cell-based, hepatitis B virus (HBV); conditions: Hepatitis B virus, 120 h, day 5 post treatment, 50% reduction of viral product accumulation in lysates or supernatants vs no drug controls, readout (qPCR, HBsAg, HBeAg) not specified
Procedure, shortened: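 HBV-producing 2.2.15 cells, 35,000/well, treated with 5-fold serial compound dilutions at 0.5% final DMSO for 5 days. Lysate HBV DNA by qPCR or supernatant HBsAg/HBeAg by ELISA; EC50 is 50% reduction versus no-drug control, binned A<0.1 μM, B 0.1-1 μM, C>1 μM.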

[1] = Compound induced cellular toxicity in HepG2 cells (ATPlite 1 Step); assay type: cell-based; conditions: human, three days, 50% reduction of total ATP levels vs no drug controls
Method: At day 3, post seeding cells are treated with ATPlite 1 Step according to the manufacturer's instructions.

SMILES | EC50 (HBV (2.2.15 cells)) [µM] | CC50 at 3 days [1] [µM]
COCCCOc1cc2c(cc1-c1nc(C(F)(F)F)co1)-c1cc(=O)c(C(=O)O)cn1[C@H](C(C)(C)C)C2 [Example 26, (S)-6-(tert-butyl)-9-(3-methoxypropoxy)-2-oxo-10-(4-(trifluoromethyl)oxazol-2-yl)-6,7-dihydro-2H-pyrido[2,1-a]isoquinoline-3-carboxylic Acid] | 0.1 to 1 | > 25
COCCCOc1cc2c(cc1-c1ccc(F)cc1)-c1cc(=O)c(C(=O)O)cn1[C@H]1[C@@H]2COC1(C)C [Example 61, (3aS,12bR)-10-(4-fluorophenyl)-11-(3-methoxypropoxy)-3,3-dimethyl-7-oxo-3,3a,7,12b-tetrahydro-1H-furo[3,4-c]pyrido[2,1-a]isoquinoline-6-carboxylic Acid] | < 0.1 | > 25
CC(C)(C)[C@@H]1Cc2c(cc(-c3cccc(F)c3)c3c2CCO3)-c2cc(=O)c(C(=O)O)cn21 [Example 65, (S)-5-(tert-butyl)-12-(3-fluorophenyl)-9-oxo-2,3,4,9-tetrahydro-5H-furo[3,2-f]pyrido[2,1-a]isoquinoline-8-carboxylic Acid] | < 0.1 | < 10
COCCCOc1cc2c(cc1-c1cccc(F)c1)-c1cc(=O)c(C(=O)O)cn1[C@H](C(C)(C)C)C2 [Example 14, (S)-6-(tert-butyl)-10-(3-fluorophenyl)-9-(3-methoxypropoxy)-2-oxo-6,7-dihydro-2H-pyrido[2,1-a]isoquinoline-3-carboxylic Acid] | < 0.1 | 10 to 25
COCCCOc1cc2c(cc1-c1ccc(F)cc1F)-c1cc(=O)c(C(=O)O)cn1[C@H](C(C)(C)C)C2 [Example 22, (S)-6-(tert-butyl)-10-(2,4-difluorophenyl)-9-(3-methoxypropoxy)-2-oxo-6,7-dihydro-2H-pyrido[2,1-a]isoquinoline-3-carboxylic Acid] | 0.1 to 1 | > 25
COCCCOc1cc2c(cc1-c1cc3ccccc3o1)-c1cc(=O)c(C(=O)O)cn1[C@H](C(C)(C)C)C2 [Example 9, (S)-10-(benzofuran-2-yl)-6-(tert-butyl)-9-(3-methoxypropoxy)-2-oxo-6,7-dihydro-2H-pyrido[2,1-a]isoquinoline-3-carboxylic Acid] | < 0.1 | > 25
CC(C)(C)[C@@H]1Cc2c(cc(-c3ccc(F)c(F)c3)c3c2CCO3)-c2cc(=O)c(C(=O)O)cn21 [Example 77, (S)-5-(tert-butyl)-12-(3,4-difluorophenyl)-9-oxo-2,3,4,9-tetrahydro-5H-furo[3,2-f]pyrido[2,1-a]isoquinoline-8-carboxylic Acid] | < 0.1 | < 10
CC(C)(C)[C@@H]1Cc2c(cc(-c3ccoc3)c3c2CCO3)-c2cc(=O)c(C(=O)O)cn21 [Example 64, (S)-5-(tert-butyl)-12-(furan-3-yl)-9-oxo-2,3,4,9-tetrahydro-5H-furo[3,2-f]pyrido[2,1-a]isoquinoline-8-carboxylic Acid] | < 0.1 | < 10
COCCCOc1cc2c(cc1-c1cccc(OC)c1)-c1cc(=O)c(C(=O)O)cn1[C@H](C(C)(C)C)C2 [Example 16, (S)-6-(tert-butyl)-10-(3-methoxyphenyl)-9-(3-methoxypropoxy)-2-oxo-6,7-dihydro-2H-pyrido[2,1-a]isoquinoline-3-carboxylic Acid] | < 0.1 | 10 to 25
CC(C)[C@@H]1Cc2c(cc(-c3ccsc3)c3c2CCO3)-c2cc(=O)c(C(=O)O)cn21 [Example 100, (S)-5-isopropyl-9-oxo-12-(thiophen-3-yl)-2,3,4,9-tetrahydro-5H-furo[3,2-f]pyrido[2,1-a]isoquinoline-8-carboxylic Acid] | < 0.1 | < 10
CC(C)(C)[C@@H]1Cc2c(cc(-c3ccc(F)cc3)c3c2CCO3)-c2cc(=O)c(C(=O)O)cn21 [Example 62, (S)-5-(tert-butyl)-12-(4-fluorophenyl)-9-oxo-2,3,4,9-tetrahydro-5H-furo[3,2-f]pyrido[2,1-a]isoquinoline-8-carboxylic Acid] | < 0.1 | < 10
COCCCOc1cc2c(cc1-c1ccnn1C)-c1cc(=O)c(C(=O)O)cn1[C@H](C(C)(C)C)C2 [Example 18, (S)-6-(tert-butyl)-9-(3-methoxypropoxy)-10-(1-methyl-1H-pyrazol-5-yl)-2-oxo-6,7-dihydro-2H-pyrido[2,1-a]isoquinoline-3-carboxylic Acid] | < 0.1 | > 25
COCCCOc1cc2c(cc1-c1cnn(C)c1)-c1cc(=O)c(C(=O)O)cn1[C@H](C(C)(C)C)C2 [Example 4, (S)-6-(tert-butyl)-9-(3-methoxypropoxy)-10-(1-methyl-1H-pyrazol-4-yl)-2-oxo-6,7-dihydro-2H-pyrido[2,1-a]isoquinoline-3-carboxylic Acid] | < 0.1 | > 25
COCCCOc1cc2c(cc1-n1cccn1)-c1cc(=O)c(C(=O)O)cn1[C@H](C(C)(C)C)C2 [Example 28, (S)-6-(tert-butyl)-9-(3-methoxypropoxy)-2-oxo-10-(1H-pyrazol-1-yl)-6,7-dihydro-2H-pyrido[2,1-a]isoquinoline-3-carboxylic Acid] | 0.1 to 1 | > 25
COCCCOc1cc2c(cc1-c1ccccc1)-c1cc(=O)c(C(=O)O)cn1[C@H](C(C)(C)C)C2 [Example 3, (S)-6-(tert-butyl)-9-(3-methoxypropoxy)-2-oxo-10-phenyl-6,7-dihydro-2H-pyrido[2,1-a]isoquinoline-3-carboxylic Acid] | < 0.1 | < 10
COCCCOc1cc2c(cc1-c1cc[nH]c1)-c1cc(=O)c(C(=O)O)cn1[C@H](C(C)(C)C)C2 [Example 11, (S)-6-(tert-butyl)-9-(3-methoxypropoxy)-2-oxo-10-(1H-pyrrol-3-yl)-6,7-dihydro-2H-pyrido[2,1-a]isoquinoline-3-carboxylic Acid] | < 0.1 | > 25
COCCCOc1cc2c(cc1-c1ocnc1C(F)(F)F)-c1cc(=O)c(C(=O)O)cn1[C@H](C(C)(C)C)C2 [Example 27, (S)-6-(tert-butyl)-9-(3-methoxypropoxy)-2-oxo-10-(4-(trifluoromethyl)oxazol-5-yl)-6,7-dihydro-2H-pyrido[2,1-a]isoquinoline-3-carboxylic Acid] | 0.1 to 1 | > 25
C[C@H]1Cc2c3c(cc(-c4ccoc4)c2O1)-c1cc(=O)c(C(=O)O)cn1[C@H](C(C)(C)C)C3 [Example 132, (2S,5S)-5-(tert-butyl)-12-(furan-3-yl)-2-methyl-9-oxo-2,3,4,9-tetrahydro-5H-furo[3,2-f]pyrido[2,1-a]isoquinoline-8-carboxylic Acid] | < 0.1 | < 10
COCCCOc1cc2c(cc1-c1cccs1)-c1cc(=O)c(C(=O)O)cn1[C@H](C(C)(C)C)C2 [Example 8, (S)-6-(tert-butyl)-9-(3-methoxypropoxy)-2-oxo-10-(thiophen-2-yl)-6,7-dihydro-2H-pyrido[2,1-a]isoquinoline-3-carboxylic Acid] | < 0.1 | 10 to 25
COCCCOc1cc2c(cc1-c1cnco1)-c1cc(=O)c(C(=O)O)cn1[C@H](C(C)(C)C)C2 [Example 6, (S)-6-(tert-butyl)-9-(3-methoxypropoxy)-10-(oxazol-5-yl)-2-oxo-6,7-dihydro-2H-pyrido[2,1-a]isoquinoline-3-carboxylic Acid] | < 0.1 | > 25
